Results from publication PMC8451722, “Staphylococcus aureus Depends on Eap Proteins for Preventing Degradation of Its Phenol-Soluble Modulin Toxins by Neutrophil Serine Proteases” (Frontiers in Immunology, 2021).

Experiments:
human FPR2/ALX = target: T1, human FPR2/ALX (Homo sapiens, UniProt P25090); test: Calcium mobilization in HL60 FPR2 cells; type: cell-based; conditions: calcium flux
T1 construct: expressed in transfected cells; host or cells: HL60
T1 sequence (P25090 1-351): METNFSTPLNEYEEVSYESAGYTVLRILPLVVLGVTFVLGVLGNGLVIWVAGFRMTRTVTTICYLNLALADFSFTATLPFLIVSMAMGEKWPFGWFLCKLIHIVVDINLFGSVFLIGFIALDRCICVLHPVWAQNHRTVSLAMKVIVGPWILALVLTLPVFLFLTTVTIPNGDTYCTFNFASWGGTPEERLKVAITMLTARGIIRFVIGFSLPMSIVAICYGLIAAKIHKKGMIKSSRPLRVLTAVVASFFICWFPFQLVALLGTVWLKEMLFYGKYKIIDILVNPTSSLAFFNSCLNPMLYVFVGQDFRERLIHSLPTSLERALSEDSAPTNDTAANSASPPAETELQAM
Procedure: Culture filtrates of different bacterial strains (USA300, USA300ΔeapΔeapHIΔeapHII::ermB, S. epidermidis RN1457) were incubated with different amounts of neutrophils to investigate the potential of neutrophils to inactivate their PSM activity. Therefore, 100µl of sterile filtered overnight culture were incubated with 100µl neutrophils in RPMI at the indicated concentrations for six or 24 hours as described in the figure legends. After centrifugation, supernatants were collected and frozen at -20° until they were further analyzed for their FPR2 activity, for truncated PSM fragments and their cytotoxicity.
HL60 cells stably transfected with human FPR2/ALX (HL60-FPR2) have been described recently ([23]). These cells were grown in RPMI medium (Biochrom) supplemented with 10% FCS (Sigma-Aldrich), 20 mM Hepes (Biochrom), penicillin (100 units/ml), streptomycin (100 µg/ml) (Gibco), 1 × Glutamax (Gibco) and in the presence of G418 (Biochrom) at a final concentration of 1 mg/ml. […] Calcium fluxes were analyzed by stimulating cells loaded with Fluo-3-AM (Molecular Probes) and monitoring fluorescence with a FACSCalibur or a FACS Fortessa flow cytometer (BD Biosciences) as described recently ([23]).

[1] = target: T2, human neutrophil elastase (Homo sapiens, UniProt P08246); test: Prevention of NSP-mediated PSMα3 degradation by NSP inhibitors (western blot); type: biochemical; conditions: 100µM PMSF, one hour at 37°C, text: pre-incubation of neutrophils, Supplementary Figure 1: digestion with NE
T2 construct: purchased PanReac AppliChem
T2 sequence (P08246 30-267): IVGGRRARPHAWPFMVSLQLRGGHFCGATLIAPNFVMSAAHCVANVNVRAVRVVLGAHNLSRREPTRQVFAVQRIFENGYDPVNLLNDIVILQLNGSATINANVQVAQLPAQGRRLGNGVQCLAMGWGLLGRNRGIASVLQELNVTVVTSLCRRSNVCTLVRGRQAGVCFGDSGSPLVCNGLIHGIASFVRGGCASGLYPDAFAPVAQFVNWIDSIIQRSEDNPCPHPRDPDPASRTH
Procedure: (§1) PSMα3 (1,3µg) was digested either with 0,15 unit’s NE, CG or PR3 for one hour at 37°C with or without addition of PMSF (100µM) or 2µg Eap, 4µgEapH1 or 4µg EapH2. For digestion of PSMα3 by neutrophils, 25µl PSMα3 (20µM) was incubated for one hour with or without 5x10^6 neutrophils in 100µl RPMI at 37°C, 5% CO2. After centrifugation 10µl of the supernatant was used for western Blot analysis. After denaturation of the samples for two minutes at 85°C and addition of Tricine Sample Buffer, samples were subjected to a 10-20%- Tricine SDS gradient gel (Thermo Fischer Scientific). Then, proteins were blotted to a nitrocellulose membrane and blocked overnight using blocking buffer. After washing PSM α3 was visualized using rabbit anti-PSMα3 serum (kindly provided by Michael Otto) at a concentration of 1:10000 (for one hour, 4°C, under agitation). After washing with wash buffer (Tris buffered saline, BioRad +0,05% Tween, Merck), the secondary antibody goat anti rabbit IgG (Dylight 800 conjugate (LI-COR #2557) was added (diluted 1:10000 in blocking buffer) and incubated for one hour at 4°C. Protein bands were detected with the Licor Odyssey CLx.

human neutrophils = test: CD11b expression on neutrophils; type: cell-based; conditions: USA300 culture filtrate 0,36% in RPMI, treated 24 hours with neutrophils +/- PMSF; neutrophils stimulated 60 min 37°C; flow cytometry
Procedure: Sterile filtered culture filtrates of S. aureus USA300 (0,36% in RPMI) or TSB were incubated for 24 hours either with or without addition of the NSP inhibitor PMSF and neutrophils. Activation of human neutrophils was determined by measuring surface expression of CD11b. Neutrophils were incubated with the treated culture filtrates at 37°C with rotation for 60 min as described elsewhere ([24]). Cells were stained with a PE-labeled antibody against CD11b (mAb 44; BD Biosciences) or isotype control antibody (BD Biosciences) as described previously. Then, neutrophils were analyzed on a FACS Fortessa cytometer (BD Biosciences)

[2] = target: T2, human neutrophil elastase; test: Degradation of PSMα3 by NE (western blot); type: in vitro ADME; conditions: PSMα3 1,3µg, 0,15 units NE, one hour at 37°C, three independent experiments
Procedure: (§2) The three different human serine proteases human NE, PR3, 0.01 U and CG, 0.01 U were investigated and their potential to inactivate PSMα3 was compared. […] 28 ng/ml NE (stock: 1.4 mg/ml) were incubated for one hour at 37°C in RPMI plus 0.05% HSA to inactivate 500 nM PSMα3 in a total volume of 120 μl (0.012 μl NE in 60 μl RPMI). To avoid further degradation of PSMα3, all stimulations were prepared freshly and analyzed in different assays on the same day.
as §1, with “Then, proteins were blotted to a nitrocellulose membrane and blocked overnight using blocking buffer. After washing PSM α3 was visualized using rabbit anti-PSMα3 serum (kindly provided by Michael Otto) at a concentration of 1:10000 (for one hour, 4°C, under agitation).” left out

[3] = target: T3, human neutrophil cathepsin G (Homo sapiens, UniProt P08311); test: Degradation of PSMα3 by CG (western blot); type: in vitro ADME; conditions: PSMα3 1,3µg, 0,15 units CG, one hour at 37°C, three independent experiments
T3 construct: purchased MyBioSource
T3 sequence (P08311 21-255): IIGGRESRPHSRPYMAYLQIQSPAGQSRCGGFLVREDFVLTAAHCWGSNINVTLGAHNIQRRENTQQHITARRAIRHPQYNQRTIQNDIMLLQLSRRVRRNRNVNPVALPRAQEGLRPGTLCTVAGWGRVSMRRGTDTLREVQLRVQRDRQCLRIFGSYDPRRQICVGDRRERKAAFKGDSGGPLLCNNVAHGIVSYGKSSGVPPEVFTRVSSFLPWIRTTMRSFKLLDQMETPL
Procedure: as §2
as §1, with “Then, proteins were blotted to a nitrocellulose membrane and blocked overnight using blocking buffer. After washing PSM α3 was visualized using rabbit anti-PSMα3 serum (kindly provided by Michael Otto) at a concentration of 1:10000 (for one hour, 4°C, under agitation).” left out

[4] = target: T4, human neutrophil proteinase 3 (Homo sapiens, UniProt P24158); test: Degradation of PSMα3 by PR3 (western blot); type: in vitro ADME; conditions: PSMα3 1,3µg, 0,15 units PR3, one hour at 37°C, three independent experiments
T4 construct: purchased MyBioSource
T4 sequence (P24158 28-256): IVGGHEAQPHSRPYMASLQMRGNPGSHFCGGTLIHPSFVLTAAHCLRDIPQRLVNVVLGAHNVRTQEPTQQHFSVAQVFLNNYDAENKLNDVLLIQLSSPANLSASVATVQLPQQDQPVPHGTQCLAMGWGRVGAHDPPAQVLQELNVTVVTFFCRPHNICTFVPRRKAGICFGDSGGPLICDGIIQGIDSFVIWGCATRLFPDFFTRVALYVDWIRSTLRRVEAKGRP
Procedure: as §2
as §1, with “Then, proteins were blotted to a nitrocellulose membrane and blocked overnight using blocking buffer. After washing PSM α3 was visualized using rabbit anti-PSMα3 serum (kindly provided by Michael Otto) at a concentration of 1:10000 (for one hour, 4°C, under agitation).” left out

HL60 cells = test: Cytotoxicity assay (LDH release), HL60 cells; type: cell-based, human; conditions: three independent experiments
Procedure: 100 μl of synthetic PSMs, protease degraded PSMs or filtered bacterial culture supernatants were added to wells of a 96-well round bottom culture plate containing 10^5 neutrophils in 100 μl and plates were incubated at 37°C for up to 3 h. At the desired times, the stimulation was stopped by centrifugation for 10 minutes at 300 x g at RT, and cell lysis was determined by measuring the release of lactate dehydrogenase (LDH) using the Cytotoxicity Detection Kit (Roche Applied Sciences), according to the manufacturer’s instructions. As control, 100 μl TSB was diluted in RPMI without phenol red, mixed with human neutrophils (10^6) and tested for its ability to cause cell lysis. As control, lysis of HL60 cells was tested in pure RPMI/TSB without phenol red.

| SMILES | PSM-mediated FPR2 activation by culture filtrates of PSM producing S. aureus in the simultaneous presence of neutrophils and inhibitor (human FPR2/ALX; HL60-FPR2 cells) | PSMα3-mediated activation of FPR2 in HL60-FPR2 cells after neutrophil treatment with PMSF pre-incubation (human FPR2/ALX; three independent experiments) | effect of NSP inhibitor PMSF on degradation of PSMα3 [1] | CD11b surface expression on neutrophils incubated with culture filtrates of a PSM-producing S. aureus strain in the presence of inhibitor (human neutrophils) | degradation of PSMα3 upon incubation with NE [2] | degradation of PSMα3 upon incubation with CG [3] | degradation of PSMα3 upon incubation with PR3 [4] | cytotoxicity of PSMα3 toward HL60 cells after treatment with NE, CG and PR3 (HL60 cells) |
| --- | --- | --- | --- | --- | --- | --- | --- | --- |
| O=S(=O)(F)Cc1ccccc1 [PMSF, Phenylmethylsulfonyl fluoride] | rescued PSM-mediated FPR2 activation | maintained the activation of FPR2 | prevents degradation of PSMα3 | upregulation of CD11b | – | – | – | – |
| CSCC[C@H](NC=O)C(=O)N[C@@H](CCC(=O)O)C(=O)N[C@@H](Cc1ccccc1)C(=O)N[C@H](C(=O)N[C@@H](C)C(=O)N[C@@H](CCCCN)C(=O)N[C@@H](CC(C)C)C(=O)N[C@@H](Cc1ccccc1)C(=O)N[C@@H](CCCCN)C(=O)N[C@@H](Cc1ccccc1)C(=O)N[C@@H](Cc1ccccc1)C(=O)N[C@@H](CCCCN)C(=O)N[C@@H](CC(=O)O)C(=O)N[C@@H](CC(C)C)C(=O)N[C@@H](CC(C)C)C(=O)NCC(=O)N[C@@H](CCCCN)C(=O)N[C@@H](Cc1ccccc1)C(=O)N[C@@H](CC(C)C)C(=O)NCC(=O)N[C@@H](CC(N)=O)C(=O)N[C@@H](CC(N)=O)C(=O)O)C(C)C [PSMα3] | – | – | – | – | readily degraded | readily degraded | readily degraded | abolished |
